Key:
Type in all cases: in vitro ADME
OCT2 = molecular target: T1, OCT2 (Homo sapiens, UniProt O15244); experiment: Uptake in HEK293 cells overexpressing OCT2; settings: probe substrate, functionality check of OCT2
T1 sequence (O15244 1-555): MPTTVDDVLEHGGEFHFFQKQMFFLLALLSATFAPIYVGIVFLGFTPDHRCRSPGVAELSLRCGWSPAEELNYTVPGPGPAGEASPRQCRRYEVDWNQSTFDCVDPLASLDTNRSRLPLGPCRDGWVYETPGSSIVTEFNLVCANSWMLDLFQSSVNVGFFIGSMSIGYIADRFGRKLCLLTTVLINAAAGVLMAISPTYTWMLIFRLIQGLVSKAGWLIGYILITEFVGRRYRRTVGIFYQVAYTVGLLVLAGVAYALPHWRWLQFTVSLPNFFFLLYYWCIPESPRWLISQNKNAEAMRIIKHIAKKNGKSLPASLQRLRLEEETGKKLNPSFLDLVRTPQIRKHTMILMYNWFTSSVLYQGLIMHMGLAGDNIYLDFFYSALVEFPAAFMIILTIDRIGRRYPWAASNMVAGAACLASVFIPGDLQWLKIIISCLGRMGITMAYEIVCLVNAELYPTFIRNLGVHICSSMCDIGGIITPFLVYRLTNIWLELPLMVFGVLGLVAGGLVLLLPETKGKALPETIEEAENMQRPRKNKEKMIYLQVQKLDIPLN

OCT1 = molecular target: T2, OCT1 (Homo sapiens, UniProt O15245); experiment: Uptake in HEK293 cells overexpressing OCT1; settings: probe substrate, functionality check of OCT1
T2 sequence (O15245 1-554): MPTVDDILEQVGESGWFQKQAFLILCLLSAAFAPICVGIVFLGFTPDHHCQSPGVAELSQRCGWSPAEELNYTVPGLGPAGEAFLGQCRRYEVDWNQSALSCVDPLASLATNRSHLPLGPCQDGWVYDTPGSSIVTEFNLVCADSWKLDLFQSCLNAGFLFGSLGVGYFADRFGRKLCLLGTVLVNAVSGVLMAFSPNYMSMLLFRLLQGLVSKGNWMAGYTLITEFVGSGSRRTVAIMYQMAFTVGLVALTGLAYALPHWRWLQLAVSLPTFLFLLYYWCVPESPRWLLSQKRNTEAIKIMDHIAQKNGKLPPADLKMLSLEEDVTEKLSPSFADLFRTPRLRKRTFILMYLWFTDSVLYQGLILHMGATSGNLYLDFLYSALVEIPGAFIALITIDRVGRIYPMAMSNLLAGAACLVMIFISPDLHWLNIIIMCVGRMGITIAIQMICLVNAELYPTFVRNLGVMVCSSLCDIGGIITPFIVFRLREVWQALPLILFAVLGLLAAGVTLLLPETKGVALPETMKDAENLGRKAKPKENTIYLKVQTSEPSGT

P-gp = P-gp (Homo sapiens, UniProt P08183); experiment: A-to-B and B-to-A transport in LLC-PK1 cells overexpressing P-gp; settings: pig, LLC-PK1, Net efflux ratio, probe substrate, LLC-PK1-MDR1 compared with LLC-PK1-mock cells
Sequence of P-gp (P08183 whole entry): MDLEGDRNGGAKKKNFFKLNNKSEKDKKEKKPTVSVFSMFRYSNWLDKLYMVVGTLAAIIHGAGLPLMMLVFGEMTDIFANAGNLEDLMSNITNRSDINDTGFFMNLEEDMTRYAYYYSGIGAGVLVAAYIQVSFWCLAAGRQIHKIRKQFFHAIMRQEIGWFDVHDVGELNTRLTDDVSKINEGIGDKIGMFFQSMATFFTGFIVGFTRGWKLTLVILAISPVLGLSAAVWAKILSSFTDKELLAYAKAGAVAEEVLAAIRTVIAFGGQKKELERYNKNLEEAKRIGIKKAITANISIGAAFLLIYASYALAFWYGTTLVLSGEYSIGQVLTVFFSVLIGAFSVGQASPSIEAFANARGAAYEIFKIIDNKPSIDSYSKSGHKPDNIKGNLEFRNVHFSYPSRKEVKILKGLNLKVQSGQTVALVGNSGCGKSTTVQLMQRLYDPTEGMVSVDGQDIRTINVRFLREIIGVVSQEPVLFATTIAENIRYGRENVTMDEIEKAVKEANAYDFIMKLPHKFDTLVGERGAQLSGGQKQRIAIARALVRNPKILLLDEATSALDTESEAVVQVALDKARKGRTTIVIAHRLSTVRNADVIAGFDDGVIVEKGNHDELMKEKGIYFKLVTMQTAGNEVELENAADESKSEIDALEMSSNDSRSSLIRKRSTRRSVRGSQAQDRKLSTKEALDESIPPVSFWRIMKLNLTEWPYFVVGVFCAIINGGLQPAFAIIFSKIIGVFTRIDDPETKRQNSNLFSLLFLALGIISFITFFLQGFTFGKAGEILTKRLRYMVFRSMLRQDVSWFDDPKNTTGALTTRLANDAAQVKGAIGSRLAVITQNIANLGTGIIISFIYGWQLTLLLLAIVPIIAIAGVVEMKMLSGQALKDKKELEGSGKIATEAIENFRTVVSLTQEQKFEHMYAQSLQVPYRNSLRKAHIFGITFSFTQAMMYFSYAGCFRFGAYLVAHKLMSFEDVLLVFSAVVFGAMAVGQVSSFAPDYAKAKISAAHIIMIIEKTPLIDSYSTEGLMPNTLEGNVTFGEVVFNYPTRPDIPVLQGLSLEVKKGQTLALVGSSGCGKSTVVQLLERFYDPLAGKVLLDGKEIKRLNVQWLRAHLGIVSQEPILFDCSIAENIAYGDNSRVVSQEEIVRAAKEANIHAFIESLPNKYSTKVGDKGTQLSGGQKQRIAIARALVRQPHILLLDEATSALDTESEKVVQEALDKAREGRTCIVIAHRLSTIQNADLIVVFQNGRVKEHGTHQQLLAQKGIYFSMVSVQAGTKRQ

[1] = substrate: O=C(O[C@H]1[C@@H]2C=CO[C@@H](O[C@@H]3O[C@H](CO)[C@@H](O)[C@H](O)[C@H]3O)[C@@H]2[C@@]2(CO)O[C@@H]12)c1ccc(O)cc1; experiment: Uptake in HEK293 cells overexpressing OATP1B1; settings: other: OATP1B1-mediated uptake, 2–500 μM catalposide, 5 minutes; 37.0 °C

C[n+]1ccc(-c2ccccc2)cc1 [MPP^+, methyl-4-phenylpyridinium]
Fold increase in uptake vs HEK293 mock cells (OCT2): 17.8 fold | Fold increase in uptake vs HEK293 mock cells (OCT1): 13.2 fold

C[C@H]1O[C@@H](O[C@H]2[C@@H](O)C[C@H](O[C@H]3[C@@H](O)C[C@H](O[C@H]4CC[C@@]5(C)[C@H](CC[C@@H]6[C@@H]5C[C@@H](O)[C@]5(C)[C@@H](C7=CC(=O)OC7)CC[C@]65O)C4)O[C@@H]3C)O[C@@H]2C)C[C@H](O)[C@@H]1O [digoxin]
efflux ratio at 1 h (P-gp): 5.7

B1: OATP1B1 (Homo sapiens) (protein)
chain: MDQNQHLNKTAEAQPSENKKTRYCNGLKMFLAALSLSFIAKTLGAIIMKSSIIHIERRFEISSSLVGFIDGSFEIGNLLVIVFVSYFGSKLHRPKLIGIGCFIMGIGGVLTALPHFFMGYYRYSKETNINSSENSTSTLSTCLINQILSLNRASPEIVGKGCLKESGSYMWIYVFMGNMLRGIGETPIVPLGLSYIDDFAKEGHSSLYLGILNAIAMIGPIIGFTLGSLFSKMYVDIGYVDLSTIRITPTDSRWVGAWWLNFLVSGLFSIISSIPFFFLPQTPNKPQKERKASLSLHVLETNDEKDQTANLTNQGKNITKNVTGFFQSFKSILTNPLYVMFVLLTLLQVSSYIGAFTYVFKYVEQQYGQPSSKANILLGVITIPIFASGMFLGGYIIKKFKLNTVGIAKFSCFTAVMSLSFYLLYFFILCENKSVAGLTMTYDGNNPVTSHRDVPLSYCNSDCNCDESQWEPVCGNNGITYISPCLAGCKSSSGNKKPIVFYNCSCLEVTGLQNRNYSAHLGECPRDDACTRKFYFFVAIQVLNLFFSALGGTSHVMLIVKIVQPELKSLALGFHSMVIRALGGILAPIYFGALIDTTCIKWSTNNCGTRGSCRTYNSTSFSRVYLGLSSMLRVSSLVLYIILIYAMKKKYQEKDINASENGSVMDEANLESLNKNKHFVPSAGADSETHC
Km [1]: 220.5 µM | Vmax [1]: 7.7 pmol/min

Reference: PMC4310350 (Drug Design, Development and Therapy, 2015)
